Source: PubChem BioAssay AID1996
In brackets after ≈: the same amount, converted by molar mass.

Settings: buffer; pH 7.4; 200.0 µM

Compound	solubility kinetic [µg/mL]
N/C(=N\OC(=O)c1cccs1)c1cccc(Br)c1	8.5 (≈ 26.1 µM)
CCN(CC)CC(=O)Nc1sc(C)c(C)c1C(=O)c1ccc(C)cc1	4.6 (≈ 12.8 µM)
CN1CCN(C(=O)c2ccc(Cl)cc2)CC1	> 35.8
CCC(C)c1ccc(NC(=O)C2CC3CCC2C3)cc1 (stereo not given)	1.3 (≈ 4.79 µM)
O=C(Cc1ccccc1)NC(Cc1ccc(Cl)cc1)C(=O)O (stereo not given)	> 47.7
CCOC(=O)c1cc(C#N)c(SCC(N)=O)[nH]c1=O	> 42.2
Cc1cc(NC(=O)CSc2nc3c(cc2C#N)CCCCC3)no1	< 0.2
Cn1ccnc1COc1ccc(/C=N/O)cc1	> 34.7
Cc1ccc2c(CC(=O)NNC(=O)c3ccncc3)coc2c1	> 46.4
Cc1ccccc1NC(=O)CSc1nc(O)cc(=O)n1C	35.6 (≈ 117 µM)
Cc1cc(C(=O)Nc2ccc(Cl)cc2)c(C)n1Cc1cccs1	2.7 (≈ 7.83 µM)
CN(C)CCCNCCCNC(=O)/C(=N\O)c1ccccc1	> 46
O=C(CNC(=O)C1CCCC1)Nc1ccccc1Br	> 48.8
Cc1cc(SC(C)C(=O)O)nc2ccccc12 (stereo not given)	> 37.1
O=C(NC1CCCCC1)c1cc(S(=O)(=O)N2CCN(c3ccccc3)CC2)ccc1Cl	1.5 (≈ 3.25 µM)
CN(C)CCNC(=O)C(=O)Nc1cc2c3c(c1)CCN3C(=O)CC2	> 49.6
C=CCOc1ccccc1CN1CCC(Cc2ccccc2)CC1	31.7 (≈ 98.6 µM)
Cc1ccc(S(=O)(=O)N2CC(C)N(S(C)(=O)=O)C2)cc1 (stereo not given)	> 47.8
CCC(CC)C(=O)Nc1ccc(S(=O)(=O)Nc2nccs2)cc1	> 53
O=C(O)c1ccc(S(=O)(=O)NCc2cccnc2)cc1	> 43.8
Cc1cccc(N/C=C/C(=O)c2ccc(Cl)cc2)c1	< 0.6
COc1ccc(OC)c(C(=O)c2ccccn2)c1	> 36.5
N#Cc1cccc(NC(=O)COC(=O)C2CCC2)c1	> 38.7
Cl.O=[N+]([O-])c1cc(S(=O)(=O)CCCN2CCOCC2)ccc1F	> 55.3

Compound	solubility kinetic [µg/mL]
CC1CN(C(=O)CS(=O)(=O)Cc2ccccc2)CC(C)O1 (stereo not given)	> 46.7
O=C(O)c1cccc(S(=O)(=O)N2CCc3ccccc3C2)c1	26.2 (≈ 82.6 µM)
N/C(=N\[N+](=O)[O-])N1CCN(C(=O)c2ccccc2)CC1	> 41.6
O=C(Nc1ccc(Cl)c(S(=O)(=O)N2CCCC2)c1)c1cc(=O)[nH]c2ccccc12	14.5 (≈ 33.6 µM)
CCC/C(O)=C1\C(=O)CCCC1=NCCc1c(C)[nH]c2ccc(C)cc12	0.4 (≈ 1.13 µM)
CC(=O)Nc1nc(-c2ccc3ccccc3c2)cs1	< 0.3
NC(=O)C1CCN(C(=O)/C(=C/c2ccccc2)NC(=O)c2ccccc2)CC1	53.7 (≈ 142 µM)
COc1ccccc1NC(=O)CCN1C(=O)c2ccccc2S1(=O)=O	> 54.1
O=C(NC(=S)Nc1ccc(Cl)cc1Cl)C1CC1	0.8 (≈ 2.77 µM)
COc1ccc(NC(=O)C2CC(c3ccccc3Cl)=NO2)cc1 (stereo not given)	37.6 (≈ 114 µM)
COc1cccc(NC(=O)c2cc(-c3ccco3)nc3ccccc23)c1	< 0.4
O=c1[nH]c2cc(NCCO)c([N+](=O)[O-])cc2[nH]1	> 35.7
O=C(NCc1cccnc1)c1ccc(NS(=O)(=O)c2cccc([N+](=O)[O-])c2)cc1	> 61.9
CCn1c(C)cc(C(=O)COC(=O)c2cccnc2SC)c1C	3.7 (≈ 11.1 µM)
O=c1ccnc2n1COCS2	> 25.5
COCCNc1oc(Cc2cccc3ccccc23)nc1C#N	43.3 (≈ 141 µM)
CN=C(Nc1cccnc1)c1cccc(C(F)(F)F)c1	> 41.9
O=C(CCSCc1ccc(Cl)cc1)NCc1cccnc1	48 (≈ 150 µM)
CCc1noc(C)c1C(=O)OCC(=O)c1ccccc1OC	4.6 (≈ 15.2 µM)
Cc1ccn2c(C(=O)NN=C3CCCCCCC3)c(C)nc2c1	> 46.9
COc1ccc(N=CC=C2OC(C)(C)C(C)(C)O2)cc1OC.Cl	47.1
O=S(=O)(Nc1nc2ccccc2s1)c1ccc(Cl)nc1	> 48.9
CCOc1cccc(-c2nnc(SCC(=O)NC3CC3)n2C)c1	> 49.9
COCC(C)NCc1cccc2ccccc12.O=C(O)C(=O)O (stereo not given)	> 47.9

Compound	solubility kinetic [µg/mL]
Cc1ccc(-n2c(SCC(=O)N3CCCCC3)nc(O)cc2=O)cc1	49.9 (≈ 139 µM)
CC1CC1C(=O)Nc1nc2ccc(Cl)cc2s1 (stereo not given)	0.6 (≈ 2.25 µM)
O=[N+]([O-])c1cccnc1N1CCCNCC1	30.4 (≈ 137 µM)
CCOc1ccc(S(=O)(=O)N(CC)CC(=O)NC2CC2)cc1	> 49
CCCCC(=O)Nc1cc(-c2nc3ncccc3o2)ccc1C	4 (≈ 12.9 µM)
CCOC(=O)[C@@H]1CCN(Cc2ccccc2)C[C@H]1c1ccccc1.Cl	30.7
Cc1ccc(C(=O)Nc2ccccc2N2CCCC2)s1	> 43
C/C=C/C(=O)OCC(=O)Nc1cccc(F)c1	> 35.6
O=C(Nc1cccc(S(=O)(=O)N2CCCCC2)c1)c1ccccn1	5.1 (≈ 14.8 µM)
Cc1cc(C)cc(NC(=O)CN2CCN(C(=O)c3cccs3)CC2)c1	> 53.6
CCC(=O)Nc1cccc(C(=O)N(Cc2ccccc2)Cc2ccccc2)c1	22.2 (≈ 59.6 µM)
COCc1nc2oc3ccccc3c(=O)c2cc1C(=O)OC	19.7 (≈ 65.8 µM)
CN1CCN(C(=O)CNC(=O)Cc2ccc(Cl)cc2)CC1	> 46.5
Cc1cc(=O)[nH]c(SCC(=O)c2ccc(F)c(C)c2)n1	> 43.8
CCc1ccc(NC(=O)c2cnccn2)cc1	21.4 (≈ 94.2 µM)
COc1ccc(NC(=O)CCCc2ccccc2)c(OC)c1	36.4 (≈ 122 µM)
COc1ccc(N)cc1S(=O)(=O)Nc1ccccc1Cl	> 46.9
Cc1ccc2c(c1)N(CC(=O)Nc1nccs1)C(=O)CO2	1.3 (≈ 4.29 µM)
O=C(Nc1ccc(Cl)cc1)c1cncs1	> 35.8
Cc1ccccc1NC(=O)C1CC(=O)N(Cc2ccccc2)C1 (stereo not given)	> 46.3
Nc1ccncc1N	12.2 (≈ 112 µM)
O=C(NN1CCOCC1)c1cccc(Cl)c1	> 36.1
O=C1CSC(c2ccccn2)N1c1ccccc1F (stereo not given)	40.6 (≈ 148 µM)
Cc1cccc(C(=O)NC2CC3CCC(C2)N3C)c1 (stereo not given)	> 38.8

Compound	solubility kinetic [µg/mL]
CCC(=O)Nc1ccc(Cl)c(-c2nc3ncccc3o2)c1	> 45.3
COc1cc(Nc2ccc(S(N)(=O)=O)cc2)c([N+](=O)[O-])nc1[N+](=O)[O-]	3.8 (≈ 10.3 µM)
CCOC(=O)Cc1csc(NC(=O)CN2CCOCC2)n1	40.1 (≈ 128 µM)
O=C(O)C1C2CCC(C2)C1C(=O)Nc1cccc([N+](=O)[O-])c1 (stereo not given)	13.9 (≈ 45.7 µM)
CCOc1ccc(NC(=S)c2ccc3ccccc3n2)cc1	< 0.3
CCn1cc(CN2CCN(C)C(CCO)C2)c2ccccc21 (stereo not given)	45 (≈ 149 µM)
COc1ccc(NC(=O)Nc2cccnc2)cc1	> 36.5
CCc1ccc(NC(=O)CCC(=O)c2ccc(C)cc2)cc1	4.3 (≈ 14.6 µM)
Cc1ccsc1C(=O)OCC(=O)NC1CCCC1	> 40.1
S=C(NCCCc1ccccc1)NCc1ccccc1	23.4 (≈ 82.3 µM)
O=C(CCS(=O)(=O)c1ccccc1)N1CCOCC1	> 42.5
COc1ccc(NC(=O)CN(C)CC(=O)NC2CCC(C)CC2)cc1 (stereo not given)	> 52.1
O=C(COC(=O)CNC(=O)c1cccc(OC(F)F)c1)NCc1ccc2c(c1)OCO2	22 (≈ 50.4 µM)
O=C(Oc1ccc2c(c1)O/C(=C\c1ccncc1)C2=O)c1cccs1	2.2 (≈ 6.3 µM)
CCN1CCc2nc3ccccc3c(C(=O)Nc3ccc(F)cc3)c2C1	8.3 (≈ 23.8 µM)
CCOc1ccc(-c2c(=O)n(OCC)c3ccccc3[n+]2[O-])cc1	21.1 (≈ 64.7 µM)
N#C/C(=C\c1ccccc1)C(=O)OCC(=O)N1CCCC1	> 42.6
COc1ccc(S(=O)(=O)Nc2cccnc2)c(C)c1C	19.8 (≈ 67.7 µM)
O=C(CCNS(=O)(=O)c1ccc(F)c(Cl)c1)NCc1ccccc1F	27.2 (≈ 70 µM)
O=C(O)COCC(=O)NCc1nc(-c2ccc(C(F)(F)F)cc2)no1	> 53.9
O=C(CN1C(=O)NC2(CCCCCCC2)C1=O)Nc1cccc(Br)c1	8.2 (≈ 20.1 µM)
Cc1ccc(C(=O)N/C(=C\c2ccco2)C(=O)N2CCCCC2)cc1	> 50.8
O=C(N/N=C/c1cccnc1)c1cc(C2CC2)nc2ccccc12	> 47.5
CC(=O)c1c(C)n(-c2ccccc2Br)c2ccc(O)cc12	1 (≈ 2.91 µM)

Compound	solubility kinetic [µg/mL]
COC(=O)c1ccc(CN2CCc3ccccc32)cc1	1 (≈ 3.74 µM)
CNC(=O)NC(=O)COc1ccc2oc3c(c2c1)CCCC3	2 (≈ 6.62 µM)
CCC(C)(C)C(=O)Nc1cccc(Cl)c1C	> 36
CN1CCN(C(=O)CSc2nc3c(c(=O)n(C)c(=O)n3C)n2C)CC1	48.1 (≈ 131 µM)
CN(Cc1nc2ccccc2c(=O)[nH]1)C(=O)c1cc2c(s1)CCCCC2	4.8 (≈ 13.1 µM)
Cc1ccc(CCC(=O)Nc2ccc(CC(=O)O)cc2)o1	> 43.1
CCCCCCCCN=Cc1c(O)[nH]c(=O)[nH]c1=O	1 (≈ 3.74 µM)
C=CCNc1nc(Cl)nc(Nc2cc(Cl)ccc2OC)n1	< 0.1
CCCC(=O)Nc1ccc2oc(=O)ccc2c1	> 34.7
O=Cc1ccc(-n2cc(C=O)c3ccccc32)cc1	2.4 (≈ 9.63 µM)
COc1ccc(NC(=O)c2cc(F)cc(F)c2)cc1S(=O)(=O)N1CCCCC1	5.1 (≈ 12.4 µM)
Cc1ccc(F)c(NC(=O)CCOc2ccccc2C)c1	25.5 (≈ 88.7 µM)
Cc1ccc(S(=O)(=O)NC(=O)C2CCCCC2)cc1	> 42.2
CCCN(CCC)CC(O)COc1ccc2c(c1)OCO2.Cl (stereo not given)	45.5
CC(Oc1cccc(Cl)c1)C(=O)N1CCCN(C)CC1 (stereo not given)	> 44.5
CCc1ccc(NC(=S)N(Cc2ccccc2)Cc2ccccn2)cc1	2.4 (≈ 6.64 µM)
CCCOc1ccc(C(=O)NCCN2CCOCC2)cc1.Cl	> 49.3
CCOC(=O)C1=C(O)C(=O)N(C2CCCCC2)C1	> 38
Cc1ccc(C(NC(=O)Nc2ccccn2)C(Cl)(Cl)Cl)cc1F (stereo not given)	< 0.3
CCN(CC)C(=O)Cn1c(=O)oc2ccccc21	> 37.2
CCC(=O)Nc1ccc(S(=O)(=O)Nc2ccccn2)cc1	> 45.8
O=C(COC(=O)c1ccc[nH]c1=O)NC1CCCCC1	37 (≈ 133 µM)
Cc1c([N+](=O)[O-])cc(C(=O)Nc2ccc3ncccc3c2)cc1[N+](=O)[O-]	0.5 (≈ 1.42 µM)
C/C(=N/OC(=O)c1ccc(C)cc1)C(=O)c1ccc(Br)cc1	33.9 (≈ 94.1 µM)
